Experimental data published in patent US10434057B2, “Cosmetic composition comprising osmanthus asiaticus extract and clematis apiifolia extract” (AMI COSMETIC CO., LTD., priority 2017, dated 2019).

Experiments:
[1] = Free radical scavenging activity by ABTS assay; type: biochemical; conditions: measured at 732 nm; lower SC50 = higher activity
Method: Each of the extracts of Examples and Comparative Examples was suspended in purified water to evaluate a free radical scavenging activity of each of the extracts. […] Vitamin C was used as the control, and a 50% scavenging concentration (SC50) of the ABTS radicals was measured. Then, the measured SC50 of the ABTS radicals was compared to that of the control (Table 4). In particular, the free radical scavenging activities at different concentrations were measured in the case of Example 1, and compared to that of the control (FIG. 1).

women = experiment: Skin elasticity-improving effect of formulated creams (Cutometer MPA580); type: in vivo; conditions: cream around the eyes twice a day for 12 weeks; Cutometer MPA580 R8 value
Method: A skin elasticity-improving effect of the cosmetic composition including each of the samples obtained in Examples and Comparative Examples was evaluated. The respective samples were formulated into creams having the same compositions. In this case, only the samples of Examples 1 to 9 and Comparative Examples 1 to 12 differed. Healthy women over the age of 20 years old (with an average age of 37 years old) were divided into groups, and instructed to apply the formulated creams of Examples and Comparative Examples onto their faces under conditions of a temperature of 24 to 26° C. and a humidity of 75%. The formulated creams were applied around the eyes twice (morning and evening) a day for 12 weeks, and the skin elasticity was measured using a skin elastometer (Cutometer MPA580 commercially available from Courage+Khazaka Electronic GmbH, Germany). The test results were expressed as R8 (R8 (week 12)−R8 (week 0)) values of the Cutometer MPA580, and the R8 values represented properties such as skin viscoelasticity.

[2] = Free radical scavenging activity by DPPH assay; type: biochemical; conditions: optical density at 540 nm; lower SC50 = higher activity
Method: Each of the extracts of Examples and Comparative Examples was suspended in purified water to evaluate a free radical scavenging activity of each of the extracts. A DPPH assay is a method of measuring an optical density at 540 nm to measure a level of discoloration caused by an inhibitor scavenging stable 2,2-diphenyl-1-picrylhydrazyl (DPPH) radicals. Vitamin C was used as the control, and a 50% scavenging concentration (SC50) of the DPPH radicals was measured. Then, the measured SC50 of the DPPH radicals was compared to that of the control (Table 3). In particular, the free radical scavenging activity of the sample of Example 1 at different concentrations was measured, and compared to that of the control (FIG. 1).

B16F10 cells = experiment: Melanin content assay (amount of produced melanin); type: cell-based; conditions: α-MSH stimulated, sample 200 μg/mL (50 mg/L), 48 hours, arbutin 200 μg/mL as control
Method: To check a whitening effect of the samples of Examples and Comparative Examples, an ability of the samples of Examples and Comparative Examples to inhibit melanogenesis was evaluated using a melanin content assay (Eisinger M et al., 1982; Siegrist W and Eberle A N, 1986). Each of the samples of Examples and Comparative Examples was suspended at a concentration of 50 mg/L in purified water, and an amount of produced melanin was determined.
B16F10 cells were seeded at a concentration of 1.5×10^5 cells/well in a 60 mm culture dish, and then cultured for 24 hours. A melanogenesis-stimulating hormone, α-MSH (Sigma-Aldrich, St. Louis, Mo., USA), and each of the samples of Examples and Comparative Examples were added to a medium at a concentration of 200 μg/mL (Virador V M et al., 1999).
After 48 hours had elapsed, the cells were harvested, and then washed once with PBS. Thereafter, 120 μL of a 1 N NaOH lysis buffer was added thereto, and the resulting mixture was heated at 95° C. for 10 minutes to lyse the cells. The optical density at a wavelength of 450 nm was measured using a microplate reader. Here, arbutin at a concentration of 200 μg/mL was used as the control (Table 6).
In particular, the melanin production rates at different concentrations were measured in the case of Example 1 (FIG. 1).

SMILES | 50% Scavenging Concentration (SC50) of ABTS Radicals [1] | Skin elasticity-improving effect, R8 (week 12) − R8 (week 0) (women) | 50% Scavenging Concentration (SC50) of DPPH Radicals [2] | Melanin production rate (B16F10 cells)
O=C1O[C@H]([C@@H](O)CO)C(O)=C1O [Control (Vitamin C), Vitamin C] | 8.7 µg/mL | 0.92 | 8.7 µg/mL | –
OC[C@H]1O[C@@H](Oc2ccc(O)cc2)[C@H](O)[C@@H](O)[C@@H]1O [Positive control, arbutin] | – | – | – | 38.2%
